Results taken from patent publication US10959450B2, “Food composition for relieving symptoms of allergic and autoimmune diseases” (priority 2017, dated 2021).

System: H1N1 flu
Assay: Clinical Trial 6, influenza patient (H1N1 flu)
Format: in vivo
Settings: person; Tamiflu taken for a week
From the text: They were a patient taking Tamiflu against symptoms of H1N1 flu and taking it for a week.

`CCOC(=O)C1=C[C@@H](OC(CC)CC)[C@H](NC(C)=O)[C@@H](N)C1` [Tamiflu] was tested, and the “improvement of symptoms of H1N1 flu” value was “minimal”.
